From ChEMBL document CHEMBL1139425, “Characterization of the binding properties of SIRT2 inhibitors with a N-(3-phenylpropenoyl)-glycine tryptamide backbone” (Bioorg Med Chem, 2008) come the findings set out here.

SMILES strings stand for the structures.

Assay [1] concerns the target T1, NAD-dependent protein deacetylase sirtuin-2 (Homo sapiens) (UniProt Q8IXJ6).
T1 sequence (whole entry): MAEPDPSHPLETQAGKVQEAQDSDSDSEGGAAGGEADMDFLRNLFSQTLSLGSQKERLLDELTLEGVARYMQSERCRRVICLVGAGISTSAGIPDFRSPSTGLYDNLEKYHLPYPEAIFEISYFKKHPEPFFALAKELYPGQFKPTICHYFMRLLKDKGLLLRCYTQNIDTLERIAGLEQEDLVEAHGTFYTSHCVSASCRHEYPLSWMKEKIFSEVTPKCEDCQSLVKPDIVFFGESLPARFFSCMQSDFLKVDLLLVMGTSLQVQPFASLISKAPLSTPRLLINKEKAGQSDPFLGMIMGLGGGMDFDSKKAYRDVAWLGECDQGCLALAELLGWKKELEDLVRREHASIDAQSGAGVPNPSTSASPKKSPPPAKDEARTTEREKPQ
Briefly: Inhibition of recombinant GST-tagged SIRT2 at 200 uM by Fluor de Lys fluorescence assay.

Assay [2] addresses T2, NAD-dependent protein deacetylase sirtuin-2 (Homo sapiens, UniProt Q8IXJ6).
T2 sequence (Q8IXJ6 whole entry): T1 sequence (whole entry)
In words: Inhibition of recombinant GST-tagged SIRT2 by Fluor de Lys fluorescence assay.

As for `COc1ccccc1/C=C/C(=O)NC(C)(C)C(=O)NCCc1c[nH]c2ccccc12`, in assay [1], the inhibition stood at 35%. On the same count and under the same terms, the same measure for `O=C(NCCc1c[nH]c2ccc(OCc3ccccc3)cc12)[C@@H]1CCCN1C(=O)CCc1ccccc1`: 29.8%. As to `CC(C)(NC(=O)CCc1ccc(O)cc1)C(=O)NCCc1c[nH]c2ccccc12`, in assay [1], the inhibition is 19.5%. As to `CC(C)(NC(=O)/C=C/c1ccc(O)cc1)C(=O)NCCc1cccnc1`, the inhibition in assay [1] was 2%. Turning to `CC(C)(NC(=O)/C=C/c1ccccc1)C(=O)NCCc1c[nH]c2ccccc12`, in assay [1], the inhibition was 49.5%. For the same compound, the IC50 in assay [2] was 100 µM. Regarding `O=C(CCc1ccccc1)NCCc1c[nH]c2ccccc12`, the inhibition in assay [1] is 44.1%.

For `COc1cccc(/C=C/C(=O)NC(C)(C)C(=O)NCCc2c[nH]c3ccccc23)c1`, the inhibition in assay [1] was determined as 45.9%. With `CC(C)(NC(=O)/C=C/c1ccc(F)cc1)C(=O)NCCc1c[nH]c2ccccc12`, the inhibition in assay [1] came to 61.3%. In addition, in assay [2], the IC50 came out at 105 µM.

Consider `CC(C)(NC(=O)CCc1ccccc1)C(=O)NCCc1c[nH]c2ccccc12`, for which the inhibition in assay [1] came out at 12.5%. As for `COc1ccc2[nH]cc(CCNC(=O)CNC(=O)/C=C/c3ccccc3)c2c1`, in assay [1], the inhibition was found to be 24.2%.

For the compound `C[C@H](NC(=O)/C=C/c1ccccc1)C(=O)NCCc1c[nH]c2ccccc12`, in assay [1], the inhibition worked out at 59.6%. In assay [2], the IC50 came out at 109 µM. Regarding `O=C(/C=C/c1ccccc1)NCC(=O)NCCc1c[nH]c2ccc(OCc3ccccc3)cc12`, the inhibition in assay [1] was determined as 32.9%.

For `CC(C)(NC(=O)/C=C/c1cccc(O)c1)C(=O)NCCc1c[nH]c2ccccc12`, the inhibition in assay [1] stood at 46.7%. For the compound `C[C@H](NC(=O)CCc1ccccc1)C(=O)NCCc1c[nH]c2ccc(OCc3ccccc3)cc12`, the inhibition in assay [1] was 50.2%. For the same compound, the IC50 in assay [2] amounted to 86 µM. Regarding `C[C@H](NC(=O)/C=C/c1ccccc1)C(=O)NCCc1ccccc1`, the inhibition in assay [1] was 29.6%.

Take `O=C(NCCc1c[nH]c2ccccc12)[C@@H]1CCCN1C(=O)/C=C/c1ccccc1`: the inhibition in assay [1] was 36.6%. For the compound `C[C@H](NC(=O)/C=C/c1ccccc1)C(=O)NCCc1c[nH]c2ccc(OCc3ccccc3)cc12`, the inhibition in assay [1] turned out to be 43.7%.

With `O=C(/C=C/c1ccc(O)cc1)NCCc1c[nH]c2ccccc12`, the inhibition in assay [1] amounted to 44.3%.

For the compound `CC(C)(NC(=O)/C=C/c1cccc([N+](=O)[O-])c1)C(=O)NCCc1c[nH]c2ccccc12`, the inhibition in assay [1] was 42.1%. `O=C(/C=C/c1ccccc1)NCCc1c[nH]c2ccccc12`: the inhibition in assay [1] was found to be 58%. The IC50 in assay [2] was 173 µM. Turning to `O=C(/C=C/c1ccccc1)NCC(=O)NCCc1c[nH]c2ccccc12`, in assay [1], the inhibition is 22.7%.
